How the values were obtained:
[1] = Pharmacokinetics of 5-MeO-DMT and bufotenine after inhalation; type: in vivo, human
Experimental: Blood samples were obtained at 1; 2; 4; 7; 10; 15; 20; 30; 45 min and 1; 1.5; 2; 3; 4 hours after administration.
PK parameters were generated by algebraic analysis of the concentration versus time plots for each individual. The analysis was carried out using the software Phoenix WinNonlin 6.3.

[2] = test system: patients with treatment-resistant major depressive disorder (TRD); assay: Phase 1/2 clinical trial of inhaled 5-MeO-DMT in TRD; conditions: for patients with at least one ADR: n=4
Experimental: This trial was designed in two parts. Part A was an open-label, single-arm, single-dose Phase 1 trial with two dose levels (12 mg (n=4) and 18 mg (n=4)). […] The primary endpoint of Part B was to assess the effects on the severity of depression, as assessed by the proportion of patients in remission on day seven after dosing, defined as a MADRS total score of less than or equal to 10.

[3] = 12 mg group n=4, sum of patient scores, 2 hours after dose
[4] = 12 mg group n=4, sum of patient scores, 3 hours after dose
[5] = 12 mg group n=4, sum of patient scores, baseline
[6] = 12 mg group n=4, sum of patient scores, day 1
[7] = 12 mg group n=4, sum of patient scores, day 7
[8] = IDR group n=8, sum of patient scores, 2 hours after last dose
[9] = IDR group n=8, sum of patient scores, 3 hours after last dose
[10] = IDR group n=8, sum of patient scores, baseline
[11] = IDR group n=8, sum of patient scores, day 1
[12] = IDR group n=8, sum of patient scores, day 7

## COc1ccc2[nH]cc(CCN(C)C)c2c1 [5-MeO-DMT]
[1]; 3 hours after inhalation, 6 mg, 12 mg, 18 mg
  detectability in the plasma: no longer detectable
[1]; inhaled
  absorption and distribution: rapid absorption and distribution
[2]; 12 mg group n=4, day 7
  BPRS Anxiety percentage improvement: 76.00%
  MADRS Pessimistic Thoughts percentage improvement: 50.00%
  MADRS Reduced Sleep percentage improvement: 50.00%
[2]; [3]
  MADRS Concentration Difficulties improvement: 9
  MADRS Inability to Feel improvement: 7
  MADRS Inner Tension improvement: 11
  MADRS Lassitude improvement: 6
  MADRS Lassitude score: 10
  MADRS Pessimistic Thoughts improvement: 8
  MADRS Suicidal Thoughts improvement: 5
  MADRS Suicidal Thoughts score: 3
[2]; [4]
  BPRS Anxiety improvement: 14
  BPRS Blunted Affect improvement: 3
  BPRS Emotional Withdrawal improvement: 2
  BPRS Guilt Feelings improvement: 9
  BPRS Tension improvement: 5
[2]; [5]
  BPRS Anxiety score: 25
  BPRS Blunted Affect score: 11
  BPRS Emotional Withdrawal score: 13
  BPRS Guilt Feelings score: 18
  BPRS Tension score: 14
  MADRS Concentration Difficulties score: 16
  MADRS Inability to Feel score: 16
  MADRS Inner Tension score: 13
  MADRS Lassitude score: 16
  MADRS Pessimistic Thoughts score: 16
  MADRS Reduced Sleep score: 12
  MADRS Suicidal Thoughts score: 8
[2]; [6]
  BPRS Anxiety improvement: 19
  BPRS Blunted Affect improvement: 5
  BPRS Emotional Withdrawal improvement: 5
  BPRS Emotional Withdrawal score: 8
  BPRS Guilt Feelings improvement: 13
  BPRS Tension improvement: 8
  MADRS Concentration Difficulties improvement: 14
  MADRS Inability to Feel improvement: 15
  MADRS Inner Tension improvement: 10
  MADRS Lassitude improvement: 16
  MADRS Lassitude score: 0
  MADRS Pessimistic Thoughts improvement: 9
  MADRS Pessimistic Thoughts score: 7
  MADRS Reduced Sleep improvement: 2
  MADRS Suicidal Thoughts improvement: 3
[2]; [7]
  BPRS Anxiety improvement: 19
  BPRS Blunted Affect improvement: 6
  BPRS Emotional Withdrawal improvement: 7
  BPRS Guilt Feelings improvement: 13
  BPRS Guilt Feelings score: 5
  BPRS Tension improvement: 8
  MADRS Concentration Difficulties improvement: 13
  MADRS Inability to Feel improvement: 15
  MADRS Inability to Feel score: 1
  MADRS Inner Tension improvement: 8
  MADRS Lassitude improvement: 13
  MADRS Lassitude score: 3
  MADRS Pessimistic Thoughts improvement: 8
  MADRS Pessimistic Thoughts score: 8
  MADRS Reduced Sleep improvement: 6
  MADRS Suicidal Thoughts improvement: 1
[2]; IDR group n=8, day 1
  MADRS Reduced Sleep percentage improvement: 52.00%
[2]; IDR group n=8, day 7
  MADRS Reduced Sleep percentage improvement: 64.00%
[2]; [8]
  MADRS Concentration Difficulties improvement: 19
  MADRS Inability to Feel improvement: 24
  MADRS Inner Tension improvement: 15
  MADRS Lassitude improvement: 17
  MADRS Pessimistic Thoughts improvement: 21
  MADRS Suicidal Thoughts improvement: 8
[2]; [9]
  BPRS Anxiety improvement: 18
  BPRS Blunted Affect improvement: 4
  BPRS Emotional Withdrawal improvement: 5
  BPRS Guilt Feelings improvement: 20
  BPRS Tension improvement: 5
[2]; [10]
  BPRS Anxiety score: 37
  BPRS Blunted Affect score: 15
  BPRS Emotional Withdrawal score: 13
  BPRS Guilt Feelings score: 34
  BPRS Tension score: 16
  MADRS Concentration Difficulties score: 30
  MADRS Inability to Feel score: 36
  MADRS Inner Tension score: 26
  MADRS Lassitude score: 27
  MADRS Pessimistic Thoughts score: 28
  MADRS Reduced Sleep score: 25
  MADRS Suicidal Thoughts score: 11
[2]; [11]
  BPRS Anxiety improvement: 21
  BPRS Blunted Affect improvement: 7
  BPRS Emotional Withdrawal improvement: 5
  BPRS Guilt Feelings improvement: 23
  BPRS Tension improvement: 5
  MADRS Concentration Difficulties improvement: 29
  MADRS Inability to Feel improvement: 34
  MADRS Inner Tension improvement: 20
  MADRS Lassitude improvement: 22
  MADRS Pessimistic Thoughts improvement: 24
  MADRS Reduced Sleep improvement: 13
  MADRS Suicidal Thoughts improvement: 10
[2]; [12]
  BPRS Anxiety improvement: 20
  BPRS Blunted Affect improvement: 7
  BPRS Emotional Withdrawal improvement: 5
  BPRS Guilt Feelings improvement: 24
  BPRS Tension improvement: 6
  MADRS Concentration Difficulties improvement: 21
  MADRS Inability to Feel improvement: 30
  MADRS Inner Tension improvement: 14
  MADRS Lassitude improvement: 24
  MADRS Pessimistic Thoughts improvement: 25
  MADRS Reduced Sleep improvement: 16
  MADRS Suicidal Thoughts improvement: 8
[2]; Part A, 12 mg group, day seven
  mean MADRS change from baseline: −21.0
  mean MADRS change from baseline, percent: −65%
[2]; Part A, 12 mg single dose
  patients with at least one ADR: 3 of 4
[2]; Part A, 18 mg group n=4, day seven after dosing
  further patients with MADRS clinical response: 25%
[2]; Part A, 18 mg group, day seven
  mean MADRS change from baseline, percent: −41%
[2]; Part A, 18 mg single dose
  patients with at least one ADR: 3 of 4
[2]; Part B, IDR n=8, day seven
  patients with MADRS remission (total score less than or equal to 10): 87.5%

Source: patent US20250241895A1 (GH RESEARCH IRELAND LIMITED, priority 2022, published 2025)
